Experimental data taken from ChEMBL document CHEMBL1122215, “2-(Aminomethyl)phenols, a new class of saluretic agents. 5. Fused-ring analogues” (1983).

Legend:
Canis familiaris [1] = experiment: Saluretic property in average of two anesthetized dogs after 5 mg/kg intravenous administration; assay type: functional, Canis lupus familiaris
Rattus norvegicus [2] = experiment: Saluretic property after 80 mg/kg oral administration in rats; assay type: functional
Canis familiaris [3] = experiment: Saluretic property in average of one used conscious dog after 5 mg/kg intravenous administration; assay type: functional, Canis lupus familiaris
Rattus norvegicus [4] = experiment: Saluretic property after 50 mg/kg oral administration in rats; assay type: functional
Canis familiaris [5] = experiment: Saluretic property in average of two conscious dogs after 5 mg/kg intravenous administration; assay type: functional, Canis lupus familiaris
Canis familiaris [6] = experiment: Saluretic property in average of single anesthetized dogs after 5 mg/kg intravenous administration; assay type: functional, Canis lupus familiaris
Canis familiaris [7] = experiment: Saluretic property in average of three anesthetized dogs after 5 mg/kg intravenous administration; assay type: functional, Canis lupus familiaris
Canis familiaris [8] = experiment: Saluretic property in average of two anesthetized dogs after 5 mg/kg iv administration; assay type: functional, Canis lupus familiaris
Canis familiaris [9] = experiment: Saluretic property in average of two anesthetized dogs after 1 mg/kg intravenous administration; assay type: functional, Canis lupus familiaris

| SMILES | Score (Canis familiaris [1]) | Score (Rattus norvegicus [4]) | further results |
| --- | --- | --- | --- |
| Cl.Cl.NCc1c(O)ccc2cccnc12 | 0 |  | Score (Rattus norvegicus [2]): 0 |
| Cl.Cl.NCc1c(O)ccc2ncccc12 |  | 0 | Score (Canis familiaris [3]): 1 |
| Cl.Cl.Cl.NCc1cc(Cl)c2cccnc2c1O |  |  | Score (Canis familiaris [5]): 1 |
| CC1Nc2ccc(O)c(CN)c2S1.Cl.Cl (centres undefined) | 0 | 0 |  |
| Cl.Cl.NCc1ccc2cnccc2c1O |  | 0 | Score (Canis familiaris [6]): 1 |
| Cl.NCc1c(O)ccc2nccnc12 |  | 0 | Score (Canis familiaris [7]): 1 |
| Cl.NCc1cc(Cl)c2ccccc2c1O | 6 | 2 |  |
| Cc1cc(C)c2c(c1O)C(N)CC2.Cl (centres undefined) | 0 | 0 |  |
| Cc1cc(=O)oc2ccc(O)c(CN)c12.Cl |  | 0 | Score (Canis familiaris [8]): 0 |
| Cl.NCc1c(O)ccc2ccccc12 | 1 |  |  |
| Cc1c(O)c(CN)c(C)c2c1CCCC2.Cl |  | 5 | Score (Canis familiaris [5]): 4 |
| Cl.NC1CCc2c(Cl)ccc(O)c21 (centres undefined) | 1 |  |  |
| CCC1Cc2c(Cl)c(Cl)c(O)c(CN)c2C1.Cl (centres undefined) | 0 | 0 |  |
| NCc1ccccc1O [2-(AMINOMETHYL)PHENOL] |  | 0 | Score (Canis familiaris [8]): 0 |
| NS(=O)(=O)c1cc(C(=O)O)c(NCc2ccco2)cc1Cl [FUROSEMIDE] |  | 3 | Score (Canis familiaris [9]): 6 |
| NS(=O)(=O)c1cc2c(cc1Cl)NCNS2(=O)=O [HYDROCHLOROTHIAZIDE] |  | 2 | Score (Canis familiaris [7]): 1 |
